Reference: ChEMBL document CHEMBL4665626, “Excellent antitumor and antimetastatic activities based on novel coumarin/pyrazole oxime hybrids” (Eur J Med Chem, 2019)
Structures can show the parent of a compound that is named as a salt. Activity calls are given as the source filed them. No cut-off for these calls is given here.

Key:
[1] = Antiproliferative activity against human NCI-H1299 cells assessed as reduction in cell viability incubated for 72 hrs by MTT assay; format: functional, cell-based; settings: NCI-H1299, 72 h
SMMC-7721 [2] = experiment: Antiproliferative activity against human SMMC-7721 cells assessed as reduction in cell viability incubated for 72 hrs by MTT assay; format: functional, cell-based; settings: SMMC-7721, 72 h
HepG2 = experiment: Antiproliferative activity against human HepG2 cells assessed as reduction in cell viability incubated for 72 hrs by MTT assay; format: functional, cell-based; settings: HepG2, 72 h
U-87 MG = experiment: Antiproliferative activity against human U87 cells assessed as reduction in cell viability incubated for 72 hrs by MTT assay; format: functional, cell-based, U-87MG ATCC
SMMC-7721 [3] = experiment: Inhibition of epithelial-mesenchymal transition in human SMMC-7721 cells assessed as decrease in TGF-beta1-induced vimentin expression at 0.5 uM incubated for 48 hrs by Western blot analysis; format: functional, cell-based
SMMC-7721 [4] = experiment: Inhibition of TGF-beta1-induced cell invasion in human SMMC-7721 cells at 0.5 uM incubated for 2 days by crystal violet staining based matrigel transwell migration assay; format: functional; settings: time 2.0 day
SMMC-7721 [5] = experiment: Inhibition of TGF-beta1-induced cell migration in human SMMC-7721 cells at 0.5 uM incubated for 24 hrs by wound healing assay relative to control; format: functional
SMMC-7721 [6] = experiment: Inhibition of epithelial-mesenchymal transition in human SMMC-7721 cells assessed as decrease in TGF-beta1-induced MMP9 expression at 0.5 uM incubated for 48 hrs by immunofluorescence staining based laser-scanning confocal microscope; format: functional, cell-based
SMMC-7721 [7] = experiment: Inhibition of epithelial-mesenchymal transition in human SMMC-7721 cells assessed as increase in TGF-beta1 reduced E-cadherin expression at 0.5 uM incubated for 48 hrs by Western blot analysis; format: functional, cell-based
SMMC-7721 [8] = experiment: Inhibition of epithelial-mesenchymal transition in human SMMC-7721 cells assessed as decrease in TGF-beta1-induced vimentin expression at 0.5 uM incubated for 48 hrs by immunofluorescence staining based laser-scanning confocal microscope; format: functional, cell-based
SMMC-7721 [9] = experiment: Inhibition of epithelial-mesenchymal transition in human SMMC-7721 cells assessed as decrease in TGF-beta1-induced MMP9 expression at 0.5 uM incubated for 48 hrs by Western blot analysis; format: functional, cell-based
SMMC-7721 [10] = experiment: Inhibition of epithelial-mesenchymal transition in human SMMC-7721 cells assessed as increase in TGF-beta1 reduced E-cadherin expression at 0.5 uM incubated for 48 hrs by Immunofluorescence staining based laser-scanning confocal microscope; format: functional, cell-based

Row | Compound | IC50 [1] | IC50 (SMMC-7721 [2]) | IC50 (HepG2) | IC50 (U-87 MG) | inhibition (SMMC-7721 [3]) | inhibition (SMMC-7721 [4]) | inhibition (SMMC-7721 [5]) | inhibition (SMMC-7721 [6]) | inhibition (SMMC-7721 [7]) | inhibition (SMMC-7721 [8]) | inhibition (SMMC-7721 [9]) | inhibition (SMMC-7721 [10])
1 | Cc1nn(C)c(Oc2cccc(C(F)(F)F)c2)c1/C=N\OCCCCCCOc1cc2oc(=O)cc(C)c2cc1Cl | > 25 µM | 24.8 µM | > 25 µM | 23.4 µM | – | – | – | – | – | – | – | –
2 | Cc1nn(C)c(Oc2ccc(OC(F)(F)F)cc2)c1/C=N\OCCCCCCOc1cc2oc(=O)cc(C)c2cc1Cl | 11.9 µM | 6.35 µM | 8.16 µM | 9.62 µM | – | – | – | – | – | – | – | –
3 | COc1cccc2c1C(=O)c1c(O)c3c(c(O)c1C2=O)C[C@@](O)(C(=O)CO)C[C@@H]3O[C@H]1C[C@H](N)[C@H](O)[C@H](C)O1 [DOXORUBICIN HYDROCHLORIDE] | – | – | 2.32 µM | 4.28 µM | Active | Active | Active | Active | Active | Active | Active | Active
4 | O=c1[nH]cc(F)c(=O)[nH]1 [FLUOROURACIL] | 41.8 µM | – | 31.7 µM | 45.3 µM | – | – | – | – | – | – | – | –
